We go through 27 compounds from US9522914B2, “Azole derivative” (TAISHO PHARMACEUTICAL CO., LTD, priority 2011, dated 2016).

The structures appear in SMILES notation.

The target in the assay is Human V1b receptor (Homo sapiens (Human), UniProt P47901). Description: Binding Test for V1b Receptor ([3H]AVP, crude membrane preparation of 293FT cells). Conditions: inhibition of [3H]AVP binding (0.4 to 1 nmol/L), room temperature, 60 minutes. How it is done:
Binding Test for V1b Receptor
Human V1b receptor was transiently expressed in 293FT cells (Invitrogen). The cells were collected and then homogenated in a 15 mmol/L tris-hydrochloric acid buffer (pH 7.4 and containing 2 mmol/L magnesium chloride, 0.3 mmol/L ethylenediaminetetracetic acid, and 1 mmol/L glycol ether diaminetetraacetic acid). The resulting homogenate was centrifuged at 50,000×g at 4° C. for 20 minutes. The precipitate was resuspended in a 75 mmol/L tris-hydrochloric acid buffer (pH 7.4 and containing 12.5 mmol/L magnesium chloride, 0.3 mmol/L ethylenediaminetetracetic acid, 1 mmol/L glycol ether diaminetetraacetic acid, and 250 mmol/L sucrose) to give a crude membrane preparation, which was stored at −80° C. until the binding test was initiated. In the binding test, the crude membrane preparation was diluted with a 50 mmol/L tris-hydrochloric acid buffer (pH 7.4 and containing 10 mmol/L magnesium chloride and 0.1% bovine serum albumin) and mixed with each test compound and [^3H]AVP (final concentration: 0.4 to 1 nmol/L), followed by incubation at room temperature for 60 minutes. The test compound was serially diluted with DMSO so that it would have final concentrations of 0.01 nmol/L to 1 μmol/L at the time of mixing. After the incubation, the mixture was suction filtered through a GF/C filter that was preliminarily impregnated with 0.3% polyethyleneimine. The GF/C filter was dried and after adding a scintillator, the residual radioactivity on the filter was measured using TopCount (PerkinElmer Inc.). The radioactivity in the presence of unlabeled AVP at […] was defined as 0%, and the radioactivity in the absence of unlabeled AVP was defined as 100%. A dose-response curve was plotted from radio activities in the presence of a test compound at various concentrations, and the 50% inhibitory concentration (IC50 value) of the test compound was calculated.

Human V1b receptor, sequence (P47901 whole entry): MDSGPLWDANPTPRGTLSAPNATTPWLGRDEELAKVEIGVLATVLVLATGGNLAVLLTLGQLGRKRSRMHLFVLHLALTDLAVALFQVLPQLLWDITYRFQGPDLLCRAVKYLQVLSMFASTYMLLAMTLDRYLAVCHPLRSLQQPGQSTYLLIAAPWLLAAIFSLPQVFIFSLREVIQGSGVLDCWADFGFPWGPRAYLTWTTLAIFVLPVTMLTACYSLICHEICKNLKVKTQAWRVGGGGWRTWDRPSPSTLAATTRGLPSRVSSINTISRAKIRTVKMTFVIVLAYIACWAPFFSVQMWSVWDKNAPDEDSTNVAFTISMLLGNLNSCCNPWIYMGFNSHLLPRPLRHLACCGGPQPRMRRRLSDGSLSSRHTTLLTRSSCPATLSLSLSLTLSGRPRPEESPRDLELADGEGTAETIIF

`CC(C)NC(=O)Cn1cc(-c2ccc(CCN3CCCCC3)cc2)nc1-c1cccc(Cl)c1` [Example A-01, 2-[2-(3-chlorophenyl)-4-{4-[2-(piperidin-1-yl)ethyl]phenyl}-1H-imidazol-1-yl]-N-(propan-2-yl)acetamide] had an IC50 of 15 nM.

With `CC(C)NC(=O)Cn1cc(-c2ccc(CCN3CC4(COC4)C3)cc2)nc1-c1cccc(Cl)c1` [Example A-03, 2-[2-(3-chlorophenyl)-4-{4-[2-(2-oxa-6-azaspiro[3.3]hept-6-yl)ethyl]phenyl}-1H-imidazol-1-yl]-N-(propan-2-yl)acetamide], the IC50 lay within 10 to 100 nM.

`CC(C)NC(=O)Cn1cc(-c2ccc(CCN3CCC(O)CC3)cc2)nc1-c1cccc(Cl)c1` [Example A-04, 2-[2-(3-chlorophenyl)-4-{4-[2-(4-hydroxypiperidin-1-yl)ethyl]phenyl}-1H-imidazol-1-yl]-N-(propan-2-yl)acetamide] gave an IC50 of 10 to 100 nM. In the case of `CC(C)NC(=O)Cn1cc(-c2ccc(CCN3CCCC(O)C3)cc2)nc1-c1cccc(Cl)c1` (stereo not drawn) [Example A-05, 2-[2-(3-chlorophenyl)-4-{4-[2-(3-hydroxypiperidin-1-yl)ethyl]phenyl}-1H-imidazol-1-yl]-N-(propan-2-yl)acetamide] it was 10 to 100 nM; in that of `CC(C)NC(=O)Cn1cc(-c2ccc(CCN3CCC(O)C3)cc2)nc1-c1cccc(Cl)c1` (stereo not drawn) [Example A-06, 2-[2-(3-chlorophenyl)-4-{4-[2-(3-hydroxypyrrolidin-1-yl)ethyl]phenyl}-1H-imidazol-1-yl]-N-(propan-2-yl)acetamide], 10 to 100 nM. With `CC(C)NC(=O)Cn1cc(-c2ccc(CCN3CCC(CO)C3)cc2)nc1-c1cccc(Cl)c1` (stereo not drawn) [Example A-07, 2-[2-(3-chlorophenyl)-4-(4-{2-[3-(hydroxymethyl)pyrrolidin-1-yl]ethyl}phenyl)-1H-imidazol-1-yl]-N-(propan-2-yl)acetamide] the figure was 18 nM; with `CC(C)NC(=O)Cn1cc(-c2ccc(CCN3C4CCC3COC4)cc2)nc1-c1cccc(Cl)c1` [Example A-08, 2-[2-(3-chlorophenyl)-4-{4-[2-(3-oxa-8-azabicyclo[3.2.1]oct-8-yl)ethyl]phenyl}-1H-imidazol-1-yl]-N-(propan-2-yl)acetamide], 0.82 nM.

`COc1cc(-c2nc(-c3ccc(CCN4CCCCC4)cc3)cn2CC(=O)NC(C)C)ccc1F` [Example A-09, 2-[2-(4-fluoro-3-methoxyphenyl)-4-{4-[2-(piperidin-1-yl)ethyl]phenyl}-1H-imidazol-1-yl]-N-(propan-2-yl)acetamide]: the IC50 was found to be 16 nM.

Regarding `COc1cc(-c2nc(-c3ccc(CCN4CCOCC4)cc3)cn2CC(=O)NC(C)C)ccc1F` [Example A-10, 2-[2-(4-fluoro-3-methoxyphenyl)-4-{4-[2-(morpholin-4-yl)ethyl]phenyl}1H-imidazol-1-yl]-N-(propan-2-yl)acetamide], the IC50 was found to be 3.7 nM. With `COc1cc(-c2nc(-c3ccc(CCN4CCCC4)cc3)cn2CC(=O)NC(C)C)ccc1F` [Example A-11, 2-[2-(4-fluoro-3-methoxyphenyl)-4-{4-[2-(pyrrolidin-1-yl)ethyl]phenyl}-1H-imidazol-1-yl]-N-(propan-2-yl)acetamide] the figure was 10 nM.

In the case of `COc1cc(-c2nc(-c3ccc(CCN4CCC[C@H]4C)cc3)cn2CC(=O)NC(C)C)ccc1F` [Example A-12, 2-[2-(4-fluoro-3-methoxyphenyl)-4-(4-{2-[(2R)-2-methylpyrrolidin-1-yl]ethyl}phenyl)-1H-imidazol-1-yl]-N-(propan-2-yl)acetamide], the IC50 is 17 nM. As for `COc1cc(-c2nc(-c3ccc(CCN4CCCC(C#N)C4)cc3)cn2CC(=O)NC(C)C)ccc1F` (stereo not drawn) [Example A-13, 2-[4-{4-[2-(3-cyanopiperidin-1-yl)ethyl]phenyl}-2-(4-fluoro-3-methoxyphenyl)-1H-imidazol-1-yl]-N-(propan-2-yl)acetamide], the IC50 lay in the range of 10 to 100 nM.

Take `COc1cc(-c2nc(-c3ccc(CCN4CCC(C#N)CC4)cc3)cn2CC(=O)NC(C)C)ccc1F` [Example A-14, 2-[4-{4-[2-(4-cyanopiperidin-1-yl)ethyl]phenyl}-2-(4-fluoro-3-methoxyphenyl)-1H-imidazol-1-yl]-N-(propan-2-yl)acetamide]: the IC50 is 100 to 1000 nM.

`COc1cc(-c2nc(-c3ccc(CCN4C5CCC4CC(O)C5)cc3)cn2CC(=O)NC(C)C)ccc1F` (stereo not drawn) [Example A-15, 2-[2-(4-fluoro-3-methoxyphenyl)-4-{4-[2-(3-hydroxy-8-azabicyclo[3.2.1]oct-8-yl)ethyl]phenyl}-1H-imidazol-1-yl]-N-(propan-2-yl)acetamide] returned an IC50 of 2.4 nM. `COc1cc(-c2nc(-c3ccc(CCN4CC(C#N)C4)cc3)cn2CC(=O)NC(C)C)ccc1F` [Example A-16, 2-[4-{4-[2-(3-cyanoazetidin-1-yl)ethyl]phenyl}-2-(4-fluoro-3-methoxyphenyl)-1H-imidazol-1-yl]-N-(propan-2-yl)acetamide] came in with an IC50 of 100 to 1000 nM.

Consider `COc1cc(-c2nc(-c3ccc(CCN4CCC(OC)C4)cc3)cn2CC(=O)NC(C)C)ccc1F` (stereo not drawn) [Example A-17, 2-[2-(4-fluoro-3-methoxyphenyl)-4-{4-[2-(3-methoxypyrrolidin-1-yl)ethyl]phenyl}-1H-imidazol-1-yl]-N-(propan-2-yl)acetamide], for which the IC50 was in the range of 10 to 100 nM.

The compound `COc1cc(-c2nc(-c3ccc(CCN4CCCC(OC)C4)cc3)cn2CC(=O)NC(C)C)ccc1F` (stereo not drawn) [Example A-18, 2-[2-(4-fluoro-3-methoxyphenyl)-4-{4-[2-(3-methoxypiperidin-1-yl)ethyl]phenyl}-1H-imidazol-1-yl]-N-(propan-2-yl)acetamide] came in with an IC50 of 19 nM. For the compound `COc1cc(-c2nc(-c3ccc(CCN4CC(F)C4)cc3)cn2CC(=O)NC(C)C)ccc1F` [Example A-19, 2-[4-{4-[2-(3-fluoroazetidin-1-yl)ethyl]phenyl}-2-(4-fluoro-3-methoxyphenyl)-1H-imidazol-1-yl]-N-(propan-2-yl)acetamide], the IC50 was 10 to 100 nM. With `COc1cc(-c2nc(-c3ccc(CCN4CC(C)OC(C)C4)cc3)cn2CC(=O)NC(C)C)ccc1F` (stereo not drawn) [Example A-20, 2-[4-{4-[2-(2,6-dimethylmorpholin-4-yl)ethyl]phenyl}-2-(4-fluoro-3-methoxyphenyl)-1H-imidazol-1-yl]-N-(propan-2-yl)acetamide] the figure was 12 nM; with `COc1cc(-c2nc(-c3ccc(CCN4CCC(C)C4)cc3)cn2CC(=O)NC(C)C)ccc1F` (stereo not drawn) [Example A-21, 2-[2-(4-fluoro-3-methoxyphenyl)-4-{4-[2-(3-methylpyrrolidin-1-yl)ethyl]phenyl}-1H-imidazol-1-yl]-N-(propan-2-yl)acetamide], 3.2 nM. With `COc1cc(-c2nc(-c3ccc(CCN4C5CCC4COC5)cc3)cn2CC(=O)NC(C)C)ccc1F` [Example A-22, 2-[2-(4-fluoro-3-methoxyphenyl)-4-{4-[2-(3-oxa-8-azabicyclo[3.2.1]oct-8-yl)ethyl]phenyl}-1H-imidazol-1-yl]-N-(propan-2-yl)acetamide] the figure was 2.6 nM; with `COc1cc(-c2nc(-c3ccc(CCN4CCCOCC4)cc3)cn2CC(=O)NC(C)C)ccc1F` [Example A-23, 2-[2-(4-fluoro-3-methoxyphenyl)-4-{4-[2-(1,4-oxazepan-4-yl)ethyl]phenyl}-1H-imidazol-1-yl]-N-(propan-2-yl)acetamide], 11 nM; with `COc1cc(-c2nc(-c3ccc(CCN4CCC(OC)CC4)cc3)cn2CC(=O)NC(C)C)ccc1F` [Example A-24, 2-[2-(4-fluoro-3-methoxyphenyl)-4-{4-[2-(4-methoxypiperidin-1-yl)ethyl]phenyl}-1H-imidazol-1-yl]-N-(propan-2-yl)acetamide], 10 to 100 nM. With `COc1cc(-c2nc(-c3ccc(CCN4C(C)COCC4C)cc3)cn2CC(=O)NC(C)C)ccc1F` (stereo not drawn) [Example A-25, 2-[4-{4-[2-(3,5-dimethylmorpholin-4-yl)ethyl]phenyl}-2-(4-fluoro-3-methoxyphenyl)-1H-imidazol-1-yl]-N-(propan-2-yl)acetamide] the figure was 14 nM; with `CC(C)NC(=O)Cn1cc(-c2ccc(CCN3CCOCC3)cn2)nc1-c1cccc(Cl)c1` [Example A-26, 2-[2-(3-chlorophenyl)-4-{5-[2-(morpholin-4-yl)ethyl]pyridin-2-yl}-1H-imidazol-1-yl]-N-(propan-2-yl)acetamide], 3.4 nM. For `CC(C)NC(=O)Cn1cc(-c2ccc(CCN3C4CCC3COC4)cn2)nc1-c1cccc(Cl)c1` [Example A-27, 2-[2-(3-chlorophenyl)-4-{5-[2-(3-oxa-8-azabicyclo[3.2.1]oct-8-yl)ethyl]pyridin-2-yl}-1H-imidazol-1-yl]-N-(propan-2-yl)acetamide], the IC50 turned out to be 3.6 nM. This IC50 and that of the compound before are within 1.5-fold of each other. Regarding `COc1cccc(-c2nc(-c3ccc(CCN4CCCCC4)cc3)cn2CC(=O)NC(C)C)n1` [Example A-28, 2-[2-(6-methoxypyridin-2-yl)-4-{4-[2-(piperidin-1-yl)ethyl]phenyl}-1H-imidazol-1-yl]-N-(propan-2-yl)acetamide], the IC50 is 10 to 100 nM.
